Results reported in PMC7913291, “Synthesis and Anti-Hepatocarcinoma Effect of Amino Acid Derivatives of Pyxinol and Ocotillol” (Molecules, 2021).

Tested on: HepG2 cells
Experiment: Cytotoxic activity on HepG2 cells (CCK-8 assay)
Assay type: cell-based
Details: Homo sapiens, HepG2; CCK-8, 48 h, mean of three experiments ±SD; read-out: IC50 over HepG2 cells
Protocol: Human hepatocellular liver carcinoma cell line (HepG2) were obtained from Institute of Biochemistry and Cell Biology, Academy of Science (Shanghai, China) and were authenticated using the STR profiling method. HepG2 cells were cultured in MDEM (Gibco, Waltham, MA, USA) supplemented with 10% fetal bovine serum (FBS) and 1% penicillin-streptomycin bubbled with 5% CO2-enriched air at a temperature of 37 °C (Thermo Scientific, Waltham, MA, USA). The cytotoxic effect of compounds on HepG2 cells was assessed by using CCK-8 method. Briefly, HepG2 cells were cultured in 96-well plates at a density of 5 × 10^3 cells per well for 24 h. […] Three replicates were performed. The relative cell viability was expressed as percentage relative to the untreated cells. The inhibition ratio was calculated. The IC50 values were calculated using Logistic regression from three independent tests.

SMILES	IC50
C[C@H](NC(=O)OC(C)(C)C)C(=O)O[C@H]1CC[C@@]2(C)C(CC[C@]3(C)C2C[C@@H](O)C2C([C@]4(C)CC[C@H](C(C)(C)O)O4)CC[C@]23C)C1(C)C (stereo partly drawn) [1a, (20S, 24R)-Epoxy-3β-O-(Boc-L-alanyl)-dammarane-12β, 25-diol]	26.3 ± 0.72 µM
CSCC[C@H](NC(=O)OC(C)(C)C)C(=O)O[C@H]1CC[C@@]2(C)C(CC[C@]3(C)C2C[C@@H](O)C2C([C@]4(C)CC[C@H](C(C)(C)O)O4)CC[C@]23C)C1(C)C (stereo partly drawn) [1b, (20S, 24R)-Epoxy-3β-O-(Boc-L-methinyl)-dammarane-12β, 25-diol]	73.5 ± 2.6 µM
CC(C)(C)OC(=O)NCC(=O)O[C@H]1CC[C@@]2(C)C(CC[C@]3(C)C2C[C@@H](O)C2C([C@]4(C)CC[C@H](C(C)(C)O)O4)CC[C@]23C)C1(C)C (stereo partly drawn) [1c, (20S, 24R)-Epoxy-3β-O-(Boc-L-glycyl)-dammarane-12β, 25-diol]	26.6 ± 1.52 µM
CC(C)C[C@H](NC(=O)OC(C)(C)C)C(=O)O[C@H]1CC[C@@]2(C)C(CC[C@]3(C)C2C[C@@H](O)C2C([C@]4(C)CC[C@H](C(C)(C)O)O4)CC[C@]23C)C1(C)C (stereo partly drawn) [1d, (20S, 24R)-Epoxy-3β-O-(Boc-L-leucyl)-dammarane-12β,25-diol]	73.1 ± 1.67 µM
CC(C)(C)OC(=O)N1CCCC1C(=O)O[C@H]1CC[C@@]2(C)C(CC[C@]3(C)C2C[C@@H](O)C2C([C@]4(C)CC[C@H](C(C)(C)O)O4)CC[C@]23C)C1(C)C (stereo partly drawn) [1e, (20S, 24R)-Epoxy-3β-O-(Boc-L-prolyl)-dammarane-12β, 25-diol]	30.5 ± 2.98 µM
CC(C)[C@H](NC(=O)OC(C)(C)C)C(=O)O[C@H]1CC[C@@]2(C)C(CC[C@]3(C)C2C[C@@H](O)C2C([C@]4(C)CC[C@H](C(C)(C)O)O4)CC[C@]23C)C1(C)C (stereo partly drawn) [1f, (20S, 24R)-Epoxy-3β-O-(Boc-L-valyl)-dammarane-12β, 25-diol]	62.1 ± 3.78 µM
C[C@H](N)C(=O)O[C@H]1CC[C@@]2(C)C(CC[C@]3(C)C2C[C@@H](O)C2C([C@]4(C)CC[C@H](C(C)(C)O)O4)CC[C@]23C)C1(C)C (stereo partly drawn) [2a, (20S, 24R)-Epoxy-3β-O-(L-alanyl)-dammarane-12β, 25-diol]	16.5 ± 1.66 µM
CSCC[C@H](N)C(=O)O[C@H]1CC[C@@]2(C)C(CC[C@]3(C)C2C[C@@H](O)C2C([C@]4(C)CC[C@H](C(C)(C)O)O4)CC[C@]23C)C1(C)C (stereo partly drawn) [2b, (20S, 24R)-Epoxy-3β-O-(L-methinyl)-dammarane-12β, 25-diol]	20.3 ± 2.04 µM
CC(C)(O)[C@H]1CC[C@@](C)(C2CC[C@]3(C)C2[C@H](O)CC2[C@@]4(C)CC[C@H](OC(=O)CN)C(C)(C)C4CC[C@]23C)O1 (stereo partly drawn) [2c, (20S, 24R)-Epoxy-3β-O-(L-glycyl)-dammarane-12β, 25-diol]	16.3 ± 0.31 µM
CC(C)C[C@H](N)C(=O)O[C@H]1CC[C@@]2(C)C(CC[C@]3(C)C2C[C@@H](O)C2C([C@]4(C)CC[C@H](C(C)(C)O)O4)CC[C@]23C)C1(C)C (stereo partly drawn) [2d, (20S, 24R)-Epoxy-3β-O-(L-leucyl)-dammarane-12β, 25-diol]	20.1 ± 3.49 µM
CC(C)[C@H](N)C(=O)O[C@H]1CC[C@@]2(C)C(CC[C@]3(C)C2C[C@@H](O)C2C([C@]4(C)CC[C@H](C(C)(C)O)O4)CC[C@]23C)C1(C)C (stereo partly drawn) [2f, (20S, 24R)-Epoxy-3β-O-(L-valyl)-dammarane-12β, 25-diol]	19.7 ± 1.96 µM
C[C@H](NC(=O)OC(C)(C)C)C(=O)O[C@H]1CC[C@@]2(C)C([C@@H](O)C[C@]3(C)C2C[C@@H](O)C2C([C@]4(C)CC[C@H](C(C)(C)O)O4)CC[C@]23C)C1(C)C (stereo partly drawn) [3a, (20S, 24R)-Epoxy-3β-O-(Boc-L-alanyl)-dammarane-6α,12β,25-triol]	61 ± 1.57 µM
CSCC[C@H](NC(=O)OC(C)(C)C)C(=O)O[C@H]1CC[C@@]2(C)C([C@@H](O)C[C@]3(C)C2C[C@@H](O)C2C([C@]4(C)CC[C@H](C(C)(C)O)O4)CC[C@]23C)C1(C)C (stereo partly drawn) [3b, (20S, 24R)-Epoxy-3β-O-(Boc-L-methinyl)-dammarane-6α,12β,25-triol]	88.6 ± 5.03 µM
CC(C)(C)OC(=O)NCC(=O)O[C@H]1CC[C@@]2(C)C([C@@H](O)C[C@]3(C)C2C[C@@H](O)C2C([C@]4(C)CC[C@H](C(C)(C)O)O4)CC[C@]23C)C1(C)C (stereo partly drawn) [3c, (20S, 24R)-Epoxy-3β-O-(Boc-L-glycyl)-dammarane-6α,12β,25-triol]	32.6 ± 1.55 µM
CC(C)C[C@H](NC(=O)OC(C)(C)C)C(=O)O[C@H]1CC[C@@]2(C)C([C@@H](O)C[C@]3(C)C2C[C@@H](O)C2C([C@]4(C)CC[C@H](C(C)(C)O)O4)CC[C@]23C)C1(C)C (stereo partly drawn) [3d, (20S, 24R)-Epoxy-3β-O-(Boc-L-leucyl)-dammarane-6α,12β,25-triol]	74.9 ± 2.87 µM
CC(C)(C)OC(=O)N1CCCC1C(=O)O[C@H]1CC[C@@]2(C)C([C@@H](O)C[C@]3(C)C2C[C@@H](O)C2C([C@]4(C)CC[C@H](C(C)(C)O)O4)CC[C@]23C)C1(C)C (stereo partly drawn) [3e, (20S, 24R)-Epoxy-3β-O-(Boc-L-prolyl)-dammarane-6α,12β,25-triol]	41.8 ± 2.58 µM
CC(C)[C@H](NC(=O)OC(C)(C)C)C(=O)O[C@H]1CC[C@@]2(C)C([C@@H](O)C[C@]3(C)C2C[C@@H](O)C2C([C@]4(C)CC[C@H](C(C)(C)O)O4)CC[C@]23C)C1(C)C (stereo partly drawn) [3f, (20S, 24R)-Epoxy-3β-O-(Boc-L-valyl)-dammarane-6α,12β,25-triol]	80.1 ± 2.03 µM
C[C@H](N)C(=O)O[C@H]1CC[C@@]2(C)C([C@@H](O)C[C@]3(C)C2C[C@@H](O)C2C([C@]4(C)CC[C@H](C(C)(C)O)O4)CC[C@]23C)C1(C)C (stereo partly drawn) [4a, (20S, 24R)-Epoxy-3β-O-(L-alanyl)-dammarane-6α,12β,25-triol]	34 ± 0.9 µM
CSCC[C@H](N)C(=O)O[C@H]1CC[C@@]2(C)C([C@@H](O)C[C@]3(C)C2C[C@@H](O)C2C([C@]4(C)CC[C@H](C(C)(C)O)O4)CC[C@]23C)C1(C)C (stereo partly drawn) [4b, (20S, 24R)-Epoxy-3β-O-(L-methinyl)-dammarane-6α,12β,25-triol]	50.6 ± 0.62 µM
CC(C)(O)[C@H]1CC[C@@](C)(C2CC[C@]3(C)C2[C@H](O)CC2[C@@]4(C)CC[C@H](OC(=O)CN)C(C)(C)C4[C@@H](O)C[C@]23C)O1 (stereo partly drawn) [4c, (20S, 24R)-Epoxy-3β-O-(-L-glycyl)-dammarane-6α,12β,25-triol]	20.6 ± 2.47 µM
CC(C)C[C@H](N)C(=O)O[C@H]1CC[C@@]2(C)C([C@@H](O)C[C@]3(C)C2C[C@@H](O)C2C([C@]4(C)CC[C@H](C(C)(C)O)O4)CC[C@]23C)C1(C)C (stereo partly drawn) [4d, (20S, 24R)-Epoxy-3β-O-(L-leucyl)-dammarane-6α,12β,25-triol]	35.4 ± 1.59 µM
CC(C)(O)[C@H]1CC[C@@](C)(C2CC[C@]3(C)C2[C@H](O)CC2[C@@]4(C)CC[C@H](OC(=O)C5CCCN5)C(C)(C)C4[C@@H](O)C[C@]23C)O1 (stereo partly drawn) [4e, (20S, 24R)-Epoxy-3β-O-(L-prolyl)-dammarane-6α,12β,25-triol]	24.6 ± 0.35 µM
CC(C)[C@H](N)C(=O)O[C@H]1CC[C@@]2(C)C([C@@H](O)C[C@]3(C)C2C[C@@H](O)C2C([C@]4(C)CC[C@H](C(C)(C)O)O4)CC[C@]23C)C1(C)C (stereo partly drawn) [4f, (20S, 24R)-Epoxy-3β-O-(L-valyl)-dammarane-6α,12β,25-triol]	44.7 ± 3.07 µM
CC(C)(O)C1CCC(C)(C2CCC3(C)C2C(O)CC2C4(C)CCC(O)C(C)(C)C4CCC23C)O1 (centres unmarked) [Pyxinol]	74.5 ± 1.09 µM

Tested on: not given
Experiment: not given
Details: rats; cited from earlier work

SMILES	oral bioavailability	t1/2
CC(C)(O)C1CCC(C)(C2CCC3(C)C2C(O)CC2C4(C)CCC(O)C(C)(C)C4CCC23C)O1 (centres unmarked) [Pyxinol]	low	short
